Patent publication US9580418B2, “Bicyclic aromatic carboxamide compounds useful as Pim kinase inhibitors” (Incyte Corporation, priority 2014, dated 2017)

Assays:
Pim-1 = Pim-1 (Homo sapiens (Human), UniProt P11309); assay: Pim-1 kinase assay (Pim enzyme assays, Example A); type: biochemical; conditions: 1 mM ATP, BAD peptide substrate; read-out: PIM1 IC50
Pim-3 = Pim-3 (Homo sapiens (Human), UniProt Q86V86); assay: Pim-3 kinase assay (Pim enzyme assays, Example A); type: biochemical; conditions: 1 mM ATP, BAD peptide substrate; read-out: PIM3 IC50
Pim-2 = Pim-2 (Homo sapiens (Human), UniProt Q9P1W9); assay: Pim-2 kinase assay (Pim enzyme assays, Example A); type: biochemical; conditions: 1 mM ATP, CREBtide peptide substrate; read-out: PIM2 IC50
pBAD in KMS.12.BM cells = assay: Pim pBAD signaling assay in KMS.12.BM cells (Example B); type: cell-based; conditions: Homo sapiens, 2.5 h incubation, pBAD ELISA

Sequence of Pim-1 (P11309 whole entry): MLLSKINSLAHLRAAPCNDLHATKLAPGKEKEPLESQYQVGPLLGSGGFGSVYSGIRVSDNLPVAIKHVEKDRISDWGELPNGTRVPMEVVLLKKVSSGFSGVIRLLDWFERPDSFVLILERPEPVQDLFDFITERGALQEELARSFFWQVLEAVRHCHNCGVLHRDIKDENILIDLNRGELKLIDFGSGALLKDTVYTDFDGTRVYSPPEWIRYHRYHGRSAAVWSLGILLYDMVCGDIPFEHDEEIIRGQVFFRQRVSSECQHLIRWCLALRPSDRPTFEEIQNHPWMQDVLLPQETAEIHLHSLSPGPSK
Sequence of Pim-2 (Q9P1W9 whole entry): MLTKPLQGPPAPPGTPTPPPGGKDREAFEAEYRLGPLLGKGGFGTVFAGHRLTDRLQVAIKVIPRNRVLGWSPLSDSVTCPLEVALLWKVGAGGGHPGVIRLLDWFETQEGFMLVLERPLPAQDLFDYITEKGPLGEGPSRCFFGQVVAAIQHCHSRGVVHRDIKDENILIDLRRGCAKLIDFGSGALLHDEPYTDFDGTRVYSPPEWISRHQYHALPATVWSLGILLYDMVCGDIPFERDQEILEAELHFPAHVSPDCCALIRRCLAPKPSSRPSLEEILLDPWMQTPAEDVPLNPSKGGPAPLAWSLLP

SMILES	IC50 (Pim-1) [nM]	IC50 (Pim-3) [nM]	IC50 (Pim-2) [nM]	IC50 (pBAD in KMS.12.BM cells) [nM]
C[C@H]1CN(c2ccncc2NC(=O)c2ccc3ccc(-c4cccnc4)cc3n2)C[C@@H](N)[C@@H]1O [Example 47, N-(4-((3R,4R,5S)-3-Amino-4-hydroxy-5-methylpiperidin-1-yl)pyridin-3-yl)-7-(pyridin-3-yl)quinoline-2-carboxamide]	≤ 10	≤ 10	≤ 100	≤ 50
C[C@@H]1C[C@H](N)CN(c2ccncc2NC(=O)c2ccc3ccc(-c4cnn(C)c4)cc3n2)C1 [Example 48, N-{4-[(3S,5R)-3-amino-5-methylpiperidin-1-yl]pyridin-3-yl}-7-(1-methyl-1H-pyrazol-4-yl)quinoline-2-carboxamide]	≤ 10	≤ 10	≤ 100	≤ 50
C[C@@H]1C[C@H](N)CN(c2ccncc2NC(=O)c2ccc3ccc(-c4ccccc4C#N)cc3n2)C1 [Example 49, N-{4-[(3S,5R)-3-Amino-5-methylpiperidin-1-yl]pyridin-3-yl}-7-(2-cyanophenyl)quinoline-2-carboxamide]	≤ 10	≤ 10	≤ 100	≤ 50
C[C@@H]1C[C@H](N)CN(c2ccncc2NC(=O)c2ccc3ccc(N4CCC(O)CC4)cc3n2)C1 [Example 50, N-(4-((3S,5R)-3-Amino-5-methylpiperidin-1-yl)pyridin-3-yl)-7-(4-hydroxypiperidin-1-yl)quinoline-2-carboxamide]	≤ 10	≤ 10	≤ 100	≤ 50
N#Cc1ccccc1-c1cnc2ccc(C(=O)Nc3cnccc3N3C[C@@H](N)C[C@@H](C(F)(F)F)C3)nc2c1 [Example 51, N-{4-[(3S,5R)-3-Amino-5-(trifluoromethyl)piperidin-1-yl]pyridin-3-yl}-7-(2-cyanophenyl)-1,5-naphthyridine-2-carboxamide]	≤ 10	≤ 10	≤ 100	≤ 50
C[C@H]1CN(c2ccncc2NC(=O)c2ccc3ccc(-c4ccc(OC5CCOCC5)nc4)cc3n2)C[C@@H](N)[C@@H]1O [Example 52, N-{4-[(3R,4R,5S)-3-Amino-4-hydroxy-5-methylpiperidin-1-yl]pyridin-3-yl}-7-[6-(tetrahydro-2H-pyran-4-yloxy)pyridin-3-yl]quinoline-2-carboxamide]	≤ 10	≤ 10	≤ 100	50 to 250
